Data reported in PubChem BioAssay AID1963973 (Molecular Pharmacology Branch, DTP, NCI, 2024).

System: 883617-216-R-J1-PDC tumor spheroids, viability
Assay: Anticancer human tumor 883617-216-R-J1-PDC patient-derived bladder carcinoma cell line growth inhibition [PI3K]
Conditions: spheroids with HUVEC and MSC; for IC50: curve of first compound; for viability, T/C: stronger effect = lower value
Source text: Combinatorial screen of targeted agents with the PI3K inhibitors inavolisib, alpelisib, duvelisib, and copanlisib in multi-cell type tumor spheroids
A high-throughput screen of multi-cell type tumor spheroids was designed to identify active combinations of targeted small molecules and PI3K pathway inhibitors. Complex spheroids include a stromal component modeled by human endothelial cells (HUVEC) and fibroblasts modeled by human mesenchymal stem cells (MSCs). The concentration ranges selected for each drug and investigational agent were based upon clinically achievable concentrations if the clinical Cmax of the agent was known.
Compounds. The drugs and investigational agents: inavolisib (NSC800729), alpelisib (NSC765974), duvelisib (NSC772469), copanlisib (NSC816437), ipatasertib (NSC767898), afuresertib (NSC778305), talazoparib (NSC767125), sapanisertib (NSC764658), selumetinib (NSC741078), tovorafenib (DAY101, NSC766906), vemurafenib (NSC761431), ravoxertinib (NSC781343), sotorasib (NSC818433), MRTX1133 (NSC 836407), abemaciclib (NSC 768073), palbociclib (NSC758247), venetoclax (NSC 766270), SY5609 (NSC837396), enzalutamide (NSC755605), and darolutamide (NSC825331), were obtained from the National Cancer Institute (NCI) Developmental Therapeutics Program Chemical Repository. The FDA-approved anticancer drug set is available from the NCI Developmental Therapeutics Program. […] The stock solutions were prepared in dimethyl sulfoxide (DMSO, Sigma-Aldrich, St. Louis, MO, cat. D2650) at 800-fold the tested concentration and stored at -70 degrees C prior to their use. All drugs and investigational agents were tested over a range starting from a high concentration at or near the clinical Cmax and decreasing in half-log increments. If the clinical Cmax for an agent had not been determined, the highest concentration tested was 10 microM.
Cell Culture. All cells were maintained in an incubator at 37 degrees C and 5% CO2 with 95% humidity. The PDC lines were cultured according to standard operating procedures established by the NCI PDMR (https://pdmr.cancer.gov/sops/default.htm). All PDCs were thawed and cultured in Matrigel-coated flasks prepared with a working solution of 1X Ham's F-12 nutrient mix, without supplementation (Invitrogen, Waltham, MA, cat. 11765054), 100 U/mL penicillin-streptomycin (Invitrogen, cat. 15140122), and 2.5% Matrigel (Corning Inc., Corning, NY, cat. 354248) for the first three passages. The 354836-022-R-J1-PDC, 475296-252-R-J1-PDC, and 997726-040-R-J2-PDC lines were cultured in 6A media, which includes advanced DMEM/F-12 (Thermo Fisher Scientific, cat. 12634028), 10 mM HEPES (Thermo Fisher Scientific, cat. 15630080), 1X GlutaMAX supplement (Thermo Fisher Scientific, cat. 35050061), 0.1 mg/mL primocin (InvivoGen, San Diego, CA, cat. ant-pm-2), 10% defined fetal bovine serum, heat inactivated (HyClone Laboratories Inc., Logan, UT, cat. SH30070.03HI), 50% L-WRN conditioned media (ATCC, cat. CRL-3276), 1.25 mM N-Acetyl-L-cysteine (Sigma-Aldrich, cat. A9165), 10 mM nicotinamide (Sigma-Aldrich, cat. N0636), 1X B-27 supplement (Thermo Fisher Scientific, cat. 17504044), 1X N-2 supplement (Thermo Fisher Scientific, cat. 17502048), and 10 microM Y-27632 dihydrochloride (Tocris Bioscience, Bristol, United Kingdom, cat. 1254). The 624824-186-R-J2-PDC line was cultured in 6C/Colon 1B media, which includes all 6A media components plus 50 ng/mL human EGF recombinant protein (Thermo Fisher Scientific, cat. PHG0311). […]

[1] = second compound 0.00316 µM, first compound 0.0316 µM
[2] = second compound 0.00316 µM, first compound 0.1 µM
[3] = second compound 0.01 µM, first compound 0.0316 µM
[4] = second compound 0.01 µM, first compound 0.1 µM
[5] = second compound 0.0316 µM, first compound 0.0316 µM
[6] = second compound 0.0316 µM, first compound 0.1 µM
[7] = second compound 0.1 µM, first compound 0.0316 µM
[8] = second compound 0.1 µM, first compound 0.1 µM
[9] = second compound 0.316 µM, first compound 0.0316 µM
[10] = second compound 0.316 µM, first compound 0.1 µM
[11] = second compound 1 µM, first compound 0.0316 µM
[12] = second compound 1 µM, first compound 0.1 µM
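Further: spheroids exposed to agents for 7 days before the viability read.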

Question: What does the source list for `CC(=O)c1c(C)c2cnc(Nc3ccc(N4CCNCC4)cn3)nc2n(C2CCCC2)c1=O` + CC(Nc1ccc2c(c1)OCCn1cc(N3C(=O)OCC3C(F)F)nc1-2)C(N)=O?
Answer: IC50 (second compound 0.00316 µM): 74.3 nM; IC50 (second compound 0.01 µM): 54.3 nM; IC50 (second compound 0.0316 µM): 35.9 nM; IC50 (second compound 0.1 µM): 0.515 nM; IC50 (second compound 0.316 µM): < 0.316 nM; IC50 (second compound 1 µM): < 0.316 nM; viability, T/C (second compound 0.00316 µM, first compound 0.000316 µM): 99.1%; viability, T/C (second compound 0.00316 µM, first compound 0.001 µM): 97.3%; viability, T/C (second compound 0.00316 µM, first compound 0.00316 µM): 86.7%; viability, T/C (second compound 0.00316 µM, first compound 0.01 µM): 84.1%; viability, T/C [1]: 67%; viability, T/C [2]: 43.6%; viability, T/C (second compound 0.01 µM, first compound 0.000316 µM): 78.1%; viability, T/C (second compound 0.01 µM, first compound 0.001 µM): 85.7%; viability, T/C (second compound 0.01 µM, first compound 0.00316 µM): 82%; viability, T/C (second compound 0.01 µM, first compound 0.01 µM): 78.7%; viability, T/C [3]: 55.9%; viability, T/C [4]: 43.4%; viability, T/C (second compound 0.0316 µM, first compound 0.000316 µM): 74.2%; viability, T/C (second compound 0.0316 µM, first compound 0.001 µM): 78.9%; viability, T/C (second compound 0.0316 µM, first compound 0.00316 µM): 67.5%; viability, T/C (second compound 0.0316 µM, first compound 0.01 µM): 69.8%; viability, T/C [5]: 51.2%; viability, T/C [6]: 34.9%; viability, T/C (second compound 0.1 µM, first compound 0.000316 µM): 52%; viability, T/C (second compound 0.1 µM, first compound 0.001 µM): 47.8%; viability, T/C (second compound 0.1 µM, first compound 0.00316 µM): 42.8%; viability, T/C (second compound 0.1 µM, first compound 0.01 µM): 42.6%; viability, T/C [7]: 32.2%; viability, T/C [8]: 26.1%; viability, T/C (second compound 0.316 µM, first compound 0.000316 µM): 33.9%; viability, T/C (second compound 0.316 µM, first compound 0.001 µM): 26.1%; viability, T/C (second compound 0.316 µM, first compound 0.00316 µM): 26.7%; viability, T/C (second compound 0.316 µM, first compound 0.01 µM): 26.3%; viability, T/C [9]: 18.3%; viability, T/C [10]: 15.8%; viability, T/C (second compound 1 µM, first compound 0.000316 µM): 18.6%; viability, T/C (second compound 1 µM, first compound 0.001 µM): 15.8%; viability, T/C (second compound 1 µM, first compound 0.00316 µM): 14.3%; viability, T/C (second compound 1 µM, first compound 0.01 µM): 14.8%; viability, T/C [11]: 15.5%; viability, T/C [12]: 10.1%

Question: `CNC(=O)c1ccc(N2C(=S)N(c3ccc(C#N)c(C(F)(F)F)c3)C(=O)C2(C)C)cc1F` + CC(Nc1ccc2c(c1)OCCn1cc(N3C(=O)OCC3C(F)F)nc1-2)C(N)=O was tested. Which IC50 (second compound 0.00316 µM) did it give?
Answer: The IC50 was > 10000 nM.

Question: And the IC50 (second compound 0.01 µM)?
Answer: The IC50 was > 10000 nM.

Question: What about the IC50 (second compound 0.0316 µM) of the same compound?
Answer: Its IC50 is > 10000 nM.

Question: And the IC50 (second compound 0.1 µM)?
Answer: The IC50 was < 31.6 nM.

Question: What about the IC50 (second compound 0.316 µM) of the same compound?
Answer: The IC50 was < 31.6 nM.

Question: What about the IC50 (second compound 1 µM) of the same compound?
Answer: The IC50 was < 31.6 nM.

Question: What about the viability, T/C [1] of the same compound?
Answer: Its viability, T/C is 94.3%.

Question: And the viability, T/C [2]?
Answer: Its viability, T/C is 78.7%.

Question: And the viability, T/C (second compound 0.00316 µM, first compound 0.316 µM)?
Answer: Its viability, T/C is 97.5%.

Question: And the viability, T/C (second compound 0.00316 µM, first compound 1 µM)?
Answer: Its viability, T/C is 104%.

Question: And the viability, T/C (second compound 0.00316 µM, first compound 3.16 µM)?
Answer: The viability, T/C was 82.2%.

Question: And the viability, T/C (second compound 0.00316 µM, first compound 10 µM)?
Answer: Its viability, T/C is 62.4%.

Question: What about the viability, T/C [3] of the same compound?
Answer: Its viability, T/C is 90.3%.

Question: And the viability, T/C [4]?
Answer: Its viability, T/C is 74.3%.

Question: What about the viability, T/C (second compound 0.01 µM, first compound 0.316 µM) of the same compound?
Answer: Its viability, T/C is 82.6%.

Question: What about the viability, T/C (second compound 0.01 µM, first compound 1 µM) of the same compound?
Answer: Its viability, T/C is 97.5%.

Question: And the viability, T/C (second compound 0.01 µM, first compound 3.16 µM)?
Answer: Its viability, T/C is 82.3%.

Question: And the viability, T/C (second compound 0.01 µM, first compound 10 µM)?
Answer: Its viability, T/C is 63.4%.

Question: What about the viability, T/C [5] of the same compound?
Answer: The viability, T/C was 61.1%.

Question: And the viability, T/C [6]?
Answer: Its viability, T/C is 62.5%.

Question: And the viability, T/C (second compound 0.0316 µM, first compound 0.316 µM)?
Answer: The viability, T/C was 59%.

Question: What about the viability, T/C (second compound 0.0316 µM, first compound 1 µM) of the same compound?
Answer: Its viability, T/C is 75.8%.

Question: What about the viability, T/C (second compound 0.0316 µM, first compound 3.16 µM) of the same compound?
Answer: The viability, T/C was 79.8%.

Question: And the viability, T/C (second compound 0.0316 µM, first compound 10 µM)?
Answer: Its viability, T/C is 44.8%.

Question: What about the viability, T/C [7] of the same compound?
Answer: The viability, T/C was 35.2%.

Question: What about the viability, T/C [8] of the same compound?
Answer: Its viability, T/C is 39.1%.

Question: And the viability, T/C (second compound 0.1 µM, first compound 0.316 µM)?
Answer: The viability, T/C was 44.9%.

Question: And the viability, T/C (second compound 0.1 µM, first compound 1 µM)?
Answer: The viability, T/C was 41.9%.

Question: What about the viability, T/C (second compound 0.1 µM, first compound 3.16 µM) of the same compound?
Answer: Its viability, T/C is 42.5%.

Question: And the viability, T/C (second compound 0.1 µM, first compound 10 µM)?
Answer: The viability, T/C was 27.9%.

Question: And the viability, T/C [9]?
Answer: The viability, T/C was 20.5%.

Question: What about the viability, T/C [10] of the same compound?
Answer: The viability, T/C was 23.9%.

Question: What about the viability, T/C (second compound 0.316 µM, first compound 0.316 µM) of the same compound?
Answer: Its viability, T/C is 21.2%.

Question: And the viability, T/C (second compound 0.316 µM, first compound 1 µM)?
Answer: The viability, T/C was 26.2%.

Question: What about the viability, T/C (second compound 0.316 µM, first compound 3.16 µM) of the same compound?
Answer: Its viability, T/C is 48.8%.

Question: What about the viability, T/C (second compound 0.316 µM, first compound 10 µM) of the same compound?
Answer: Its viability, T/C is 19.3%.

Question: What about the viability, T/C [11] of the same compound?
Answer: Its viability, T/C is 16.9%.

Question: What about the viability, T/C [12] of the same compound?
Answer: The viability, T/C was 11.8%.

Question: And the viability, T/C (second compound 1 µM, first compound 0.316 µM)?
Answer: The viability, T/C was 16.3%.

Question: What about the viability, T/C (second compound 1 µM, first compound 1 µM) of the same compound?
Answer: Its viability, T/C is 19.5%.

Question: And the viability, T/C (second compound 1 µM, first compound 3.16 µM)?
Answer: The viability, T/C was 17.2%.

Question: What about the viability, T/C (second compound 1 µM, first compound 10 µM) of the same compound?
Answer: The viability, T/C was 12.3%.
